Four molecules from patent US11891405B2, “Furo[3,4-b]pyrrole-containing BTK inhibitor” (CHIA TAI TIANQING PHARMACEUTICAL GROUP CO., LTD., priority 2018, dated 2024) can be followed below.

One data set has as its target EGFR (WT) (Homo sapiens, UniProt P00533). Put plainly: Screening for EGFR inhibitory activity. In kind it is biochemical. The protocol:
1.2 Screening for EGFR (Epidermal Growth Factor Receptor) Inhibitory Activity
50 ng/μL EGFR (WT) stock solution was diluted with kinase buffer (50 mM HEPES, 10 mM MgCl2, 2 mM DTT, 1 mM EGTA, 0.01% Tween 20), and 6 μL of 1.67× working solution at 0.01336 ng/μL (final concentration: 0.008 ng/μL) was added to each well. Different compounds dissolved in DMSO were added to the wells using a nanoliter pipettor, resulting in the final concentration of 1000 nM to […] (4-fold gradient for 7 concentrations in total), and blank control wells (without enzyme) and negative control wells (with enzyme, plus vehicle DMSO) were set, 2 replicate wells for each well. After enzyme was reacted with the compound or vehicle for 10 min, 5× ATP at 25 μM (final concentration: 5 μM) prepared with kinase buffer was mixed with 5× substrate at 0.5 μM (final concentration: 0.1 μM, ULight-poly GT) at a ratio of 1:1, and the mixture was added to each well at 4 μL/well. After being sealed with a film, the plate was incubated at room temperature for 2 h, then 5 μL of 4×EDTA at 40 mM (final concentration: 10 mM) was added to each well. After the plate was incubated for 5 min at room temperature, 5 μL of 4× detection reagent at 8 nM (final concentration: 2 nM, Eu-anti-phospho-tyrosine antibody) was added to each well, followed by incubation at room temperature for 1 h. The plate was read using a PE Envision multi-functional microplate reader (excitation: 320 nm, emission: 665 nm), and IC50 was calculated by four-parameter fitting.

For another data set, the target named is T1, ITK (Homo sapiens, UniProt Q08881).
T1 sequence (Q08881 1-620): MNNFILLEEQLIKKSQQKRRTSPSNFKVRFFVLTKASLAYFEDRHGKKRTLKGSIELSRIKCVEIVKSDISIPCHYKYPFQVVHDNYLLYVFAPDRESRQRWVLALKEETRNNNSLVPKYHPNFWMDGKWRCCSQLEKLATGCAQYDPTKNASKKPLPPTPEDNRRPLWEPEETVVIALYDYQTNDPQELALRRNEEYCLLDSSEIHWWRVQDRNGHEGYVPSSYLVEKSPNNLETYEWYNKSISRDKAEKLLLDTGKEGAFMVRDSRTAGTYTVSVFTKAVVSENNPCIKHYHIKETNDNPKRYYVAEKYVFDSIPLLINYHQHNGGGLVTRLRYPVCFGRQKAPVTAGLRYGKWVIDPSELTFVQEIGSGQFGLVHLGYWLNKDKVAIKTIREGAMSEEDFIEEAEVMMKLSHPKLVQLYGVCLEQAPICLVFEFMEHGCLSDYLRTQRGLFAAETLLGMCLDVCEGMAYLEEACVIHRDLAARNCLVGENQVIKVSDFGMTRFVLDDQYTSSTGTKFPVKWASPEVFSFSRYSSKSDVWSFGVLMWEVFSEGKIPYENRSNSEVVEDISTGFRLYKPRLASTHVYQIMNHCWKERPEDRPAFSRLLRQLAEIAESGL
Put plainly: Screening for ITK inhibition activity. In kind it is biochemical. The protocol: 1.4 Screening for ITK ([…]) Inhibition Activity
50 ng/μL ITK stock solution was diluted with kinase buffer (50 mM HEPES, 10 mM MgCl2, 2 mM DTT, 1 mM EGTA, 0.01% Tween 20), and 6 μL of 1.67× working solution at […] (final concentration: 0.05ng/μL) was added to each well. Different compounds dissolved in DMSO were added to the wells using a nanoliter pipettor, resulting in the final concentration of 1000 nM to 0.24 nM (4-fold gradient for 7 concentrations in total), and blank control wells (without enzyme) and negative control wells (with enzyme, plus vehicle DMSO) were set. After enzyme was reacted with the compound or vehicle for 30 min, 5×ATP at 50 μM (final concentration: 10 μM) prepared with kinase buffer was mixed with 5× substrate at 0.5 μM (final concentration: 0.1 μM, ULight-poly GT) at a ratio of 1:1, and the mixture was added to each well at 4 μL/well. After being sealed with a film, the plate was incubated at room temperature for 2 h, then 5 μL of 4×EDTA at 40 mM (final concentration: 10 mM) was added to each well. After the plate was incubated for 5 min at room temperature, 5 μL of 4×detection reagent at 8 nM (final concentration: 2 nM, Eu-anti-phospho-tyrosine antibody) was added to each well, followed by incubation at room temperature for 1 h. The plate was read using a PE Envision multi-functional microplate reader (excitation: 320 nm, emission: 665 nm), and IC50 was calculated by four-parameter fitting.

Data set [1] in a line: Rat liver microsome metabolic stability. The following applies: rat liver microsomes. The format is in vitro ADME. The protocol:
3.3 Rat Liver Microsome Assay
(§1) 300 μL of final incubation system: 30 μL of rat liver microsomes (protein concentration: 5 mg/mL, XENOTECH, USA), 30 μL of NADPH (10 mM)+MgCl2 (5 mM), 3 μL of the substrate, i.e., the example compound (dissolved in 50% aqueous acetonitrile solution, 100 μM), and 237 μL of PBS buffer, wherein the proportion of the organic solvent (acetonitrile) was 0.5%. Each tube was added with 270 μL of a mixed solution of substrate and enzyme, and after being pre-incubated at 37° C. for 5 min, added with 30 μL of NADPH+MgCl2. Then 50 μL of the mixture was taken at 0 min, 15 min, 30 min and 60 min, and added with 300 μL of diazepam glacial acetonitrile (20 ng/mL) containing an internal standard to quench the reaction. The reaction mixture was vortexed for 5 min, and centrifuged (13,000 rpm, 4° C.) for 10 min. 100 μL of supernatant was pipetted into a sample vial, from which 1 μL of supernatant was injected and analyzed by LC-MS/MS, and the remaining percentage was calculated.
(Microsomes from liver hold many membrane-bound enzymes, among them those of drug oxidation.)

A short description of data set [2]: Human liver microsome metabolic stability. The note with it: human liver microsomes. The format is in vitro ADME. As to the method: 3.1 Human Liver Microsome Assay
as §1, with “of human” for “of rat”, “the residual” for “the remaining”

Structures are written as SMILES. A value given as a limit tells only on which side of the number the result lay.

EGFR (WT), sequence (P00533 25-1210, species assumed): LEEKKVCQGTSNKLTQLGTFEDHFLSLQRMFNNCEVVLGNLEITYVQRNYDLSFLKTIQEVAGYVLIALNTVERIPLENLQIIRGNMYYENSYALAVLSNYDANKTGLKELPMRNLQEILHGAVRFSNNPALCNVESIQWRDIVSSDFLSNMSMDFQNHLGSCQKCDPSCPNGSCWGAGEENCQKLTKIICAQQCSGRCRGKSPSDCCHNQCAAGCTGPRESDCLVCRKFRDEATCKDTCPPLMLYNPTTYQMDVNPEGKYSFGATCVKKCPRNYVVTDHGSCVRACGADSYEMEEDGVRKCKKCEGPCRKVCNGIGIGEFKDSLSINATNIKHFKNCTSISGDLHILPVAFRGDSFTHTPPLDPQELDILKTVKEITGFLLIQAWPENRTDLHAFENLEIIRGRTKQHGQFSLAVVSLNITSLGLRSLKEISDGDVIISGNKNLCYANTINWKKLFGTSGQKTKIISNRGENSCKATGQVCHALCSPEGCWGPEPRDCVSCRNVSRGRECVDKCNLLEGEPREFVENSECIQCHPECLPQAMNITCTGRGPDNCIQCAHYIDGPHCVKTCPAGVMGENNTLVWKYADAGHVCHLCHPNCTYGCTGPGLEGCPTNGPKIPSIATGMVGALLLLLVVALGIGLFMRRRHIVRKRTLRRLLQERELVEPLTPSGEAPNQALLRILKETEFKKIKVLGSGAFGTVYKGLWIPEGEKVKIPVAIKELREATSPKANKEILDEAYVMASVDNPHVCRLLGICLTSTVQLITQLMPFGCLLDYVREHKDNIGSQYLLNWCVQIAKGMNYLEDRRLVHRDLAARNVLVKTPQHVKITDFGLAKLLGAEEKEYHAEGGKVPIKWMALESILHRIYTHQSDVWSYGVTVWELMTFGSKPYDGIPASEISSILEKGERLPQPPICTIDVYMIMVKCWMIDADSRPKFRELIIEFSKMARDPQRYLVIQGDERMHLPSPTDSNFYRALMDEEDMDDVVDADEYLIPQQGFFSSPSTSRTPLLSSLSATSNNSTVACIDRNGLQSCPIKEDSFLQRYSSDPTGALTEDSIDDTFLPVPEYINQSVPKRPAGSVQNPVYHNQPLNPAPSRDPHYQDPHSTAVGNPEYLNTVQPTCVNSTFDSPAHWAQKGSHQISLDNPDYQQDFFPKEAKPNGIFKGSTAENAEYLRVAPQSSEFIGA

As a reminder, the IC50 is the concentration at which inhibition is half-maximal. Read a high IC50 as lower potency. For `CC#CC(=O)N1[C@@H]2COC[C@@H]2C[C@H]1c1nc(-c2ccc(C(=O)Nc3ccccn3)cc2)c2c(N)nccn12` [Compound I-1, 4-(8-amino-3-((2S,3aR,6aS)-1-(but-2-ynoyl)hexahydro-1H-furo[3,4-b]pyrrol-2-yl)imidazo [1,5-a]pyrazin-1-yl)-N-(pyridin-2-yl)benzamide], the IC50 at EGFR (WT) and on ITK was over 1000 nM each time. In addition, in data set [1], the “Rat (RLM) Remaining % (T = 60 min)” value was 30%. Also, the “Human (HLM) Remaining % (T = 60 min)” value in data set [2] came to 89%.

Turning to `C=CC(=O)N1[C@@H]2COC[C@@H]2C[C@H]1c1nc(-c2ccc(C(=O)Nc3ccccn3)cc2)c2c(N)nccn12` [Compound I-3, 4-(3-((2S,3AR,6AS)-1-ACRYLOYLHEXAHYDRO-1H-FURO[3,4-B]PYRROL-2-YL)-8-AMINOIMIDAZO [1,5-A]PYRAZIN-1-YL)-N-(PYRIDIN-2-YL)BENZAMIDE], the values for the IC50 at EGFR (WT) and against ITK were 107 nM and over 1000 nM, respectively. Also, in data set [1], the “Rat (RLM) Remaining % (T = 60 min)” value is given as 42%. Besides, in data set [2], the “Human (HLM) Remaining % (T = 60 min)” value came to 74%.

In the case of `CC#CC(=O)N1[C@@H]2COC[C@@H]2C[C@H]1c1nc(-c2ccc(C(=O)Nc3cc(C(F)(F)F)ccn3)cc2F)c2c(N)nccn12` [Compound I-4, 4-(8-AMINO-3-((2S,3AR,6AS)-1-(BUT-2-YNOYL)HEXAHYDRO-1H-FURO[3,4-B]PYRROL-2-YL)IMIDAZO[1,5-A]PYRAZIN-1-YL)-3-FLUORO-N-(4-(TRIFLUOROMETHYL)PYRIDIN-2-YL)BENZAMIDE], the IC50 against EGFR (WT) and on ITK was over 1000 nM in each case. For the same molecule, the “Rat (RLM) Remaining % (T = 60 min)” value in data set [1] is recorded as 26%. For the same molecule, the “Human (HLM) Remaining % (T = 60 min)” value in data set [2] is given as 15%.

As for `Nc1nccn2c([C@@H]3C[C@H]4COC[C@H]4N3C(=O)C3CC3)nc(-c3ccc(C(=O)Nc4cc(C(F)(F)F)ccn4)cc3F)c12` [Compound I-7, 4-(8-AMINO-3-((2S,3AR,6AS)-1-(CYCLOPROPANECARBONYL)HEXAHYDRO-1H-FURO[3,4-B]PYRROL-2-YL)IMIDAZO[1,5-A]PYRAZIN-1-YL)-3-FLUORO-N-(4-(TRIFLUOROMETHYL)PYRIDIN-2-YL)BENZAMIDE], the IC50 at EGFR (WT) and against ITK was over 1000 nM in each case. In data set [1], the “Rat (RLM) Remaining % (T = 60 min)” value amounted to 33.9%. Further, the “Human (HLM) Remaining % (T = 60 min)” value in data set [2] amounted to 29.9%.
